# Laboratory results taken from patent US10584124B2, “Crystalline forms” (Array BioPharma Inc., priority 2017, dated 2020).
# Read-outs that look alike come from different tables or passages of the source.
# Columns and labels:
# [1] = Isothermic (25° C.) DVS analysis of salts of the compound of Formula I; type: physicochemical; details: for Mass gain by DVS: 80% relative humidity, 25° C.; for Hygroscopicity by DVS (in words): isothermic 25° C.; for Deliquescence upon removal from the DVS chamber: sample remained a free-flowing powder
# From the text: (FIG. 16D). […] Some hysteresis was observed. […] (FIG. 16C). […] (FIG. 16D).
# (FIG. 18A). […] (FIG. 18B). […] Some hysteresis was observed. […] An overlay of FTIR spectra of the L- and D-malic acid salts is shown in FIG. 18F. ^1H NMR spectra of the L- and D-malic salts in DMSO-d^6 are shown in FIG. 18G-18H, respectively.
# [2] = Stability screening of freebase and selected salts of Formula I, 40° C. and 75% RH, weekly HPLC over 4 weeks; details: for Absolute % change: 40° C. and 75% RH, T = 0 to 4 weeks; for Stability, HPLC analysis, T = 1 week / Stability, HPLC analysis, T = 2 weeks / Stability, HPLC analysis, T = 3 weeks / Stability, HPLC analysis, T = 4 weeks / Stability, HPLC analysis, T = 0: stored at 40° C. and 75% RH
# GVS hygroscopicity = type: physicochemical
# From the text: The instruments and methods of analysis used in the polymorph screens described in Examples 5 are described in Example 4, above.
# [3] = Solubility test of the D-malic acid salt (room temperature, 60° C., 70° C.); type: physicochemical; details: for Solids dissolve at 70° C.?: 70° C. for approximately 3.0 hours
# [4] = Solubility screening of the compound of Formula IV (freebase) in solvent mixtures; type: physicochemical; details: approximately 25° C.
structure (smiles),measurement,setting,value
COc1ccc(CN2CCN(c3ccc(-c4cc(-c5cnn(C)c5)cn5ncc(C#N)c45)cn3)CC2)cn1.Cl [HCl salt],Mass gain by DVS,[1],approximately 5%
same,Hygroscopicity by DVS (in words),[1],hygroscopic
same,Deliquescence upon removal from the DVS chamber,[1],no observable deliquescence
same,Absolute % change,[2],0.0%
same,"Stability, HPLC analysis, T = 1 week",[2],99.3%
same,"Stability, HPLC analysis, T = 2 weeks",[2],99.3%
same,"Stability, HPLC analysis, T = 3 weeks",[2],99.3%
same,"Stability, HPLC analysis, T = 4 weeks",[2],99.3%
same,"Stability, HPLC analysis, T = 0",[2],99.3%
COc1ccc(CN2C3CC2CN(c2ccc(-c4cc(OCC(C)(C)O)cn5ncc(C#N)c45)cn2)C3)cn1 [Form 1],Hygroscopicity by GVS (in words),GVS hygroscopicity,moderately hygroscopic
same,Weight increase by GVS,GVS hygroscopicity; at 90% RH,2.6%
COc1ccc(CN2C3CC2CN(c2ccc(-c4cc(OCC(C)(C)O)cn5ncc(C#N)c45)cn2)C3)cn1.O=P(O)(O)O [phosphate salt],Form and crystallinity by XRPD after 7-day stability tests,"ambient temperature and light, 40° C./75% RH, 80° C.",no change in form or crystallinity
same,Purity after 7-day stability storage,stored 7 days at 40° C./75% RH,97.44%
same,Purity after 7-day stability storage,stored 7 days at 80° C.,64.96%
same,Purity after 7-day stability storage,stored 7 days at RT (ambient temperature and light),98.03%
same,Hygroscopicity by GVS (in words),GVS hygroscopicity,highly hygroscopic
same,Weight increase by GVS,GVS hygroscopicity,approximately 14%
COc1ccc(CN2CCN(c3ccc(-c4cc(-c5cnn(C)c5)cn5ncc(C#N)c45)cn3)CC2)cn1.O=C(O)C[C@@H](O)C(=O)O [D-malic acid salt],Solids dissolve at 60° C.?,"[3]; 60° C. for 3.0 hours, solvent 0.1M HCl, Yes",Yes (>15 mg/mL)
same,Solids dissolve at 60° C.?,"[3]; 60° C. for 3.0 hours, solvent 2-methyl THF",No
same,Solids dissolve at 60° C.?,"[3]; 60° C. for 3.0 hours, solvent ACN",No
same,Solids dissolve at 60° C.?,"[3]; 60° C. for 3.0 hours, solvent Acetone",No
same,Solids dissolve at 60° C.?,"[3]; 60° C. for 3.0 hours, solvent DCE",No
same,Solids dissolve at 60° C.?,"[3]; 60° C. for 3.0 hours, solvent DMSO, Yes",Yes (>40 mg/mL)
same,Solids dissolve at 60° C.?,"[3]; 60° C. for 3.0 hours, solvent EtOAc",No
same,Solids dissolve at 60° C.?,"[3]; 60° C. for 3.0 hours, solvent EtOH",No
same,Solids dissolve at 60° C.?,"[3]; 60° C. for 3.0 hours, solvent IPA",No
same,Solids dissolve at 60° C.?,"[3]; 60° C. for 3.0 hours, solvent MEK",No
same,Solids dissolve at 60° C.?,"[3]; 60° C. for 3.0 hours, solvent MTBE",No
same,Solids dissolve at 60° C.?,"[3]; 60° C. for 3.0 hours, solvent MeOH",No
same,Solids dissolve at 60° C.?,"[3]; 60° C. for 3.0 hours, solvent Toluene",No
same,Solids dissolve at 60° C.?,"[3]; 60° C. for 3.0 hours, solvent iPAc",No
same,Solids dissolve at 60° C.?,"[3]; 60° C. for 3.0 hours, solvent water",No
same,Solids dissolve at 70° C.?,[3]; solvent 2-methyl THF,No
same,Solids dissolve at 70° C.?,[3]; solvent ACN,No
same,Solids dissolve at 70° C.?,[3]; solvent DCE,No
same,Solids dissolve at 70° C.?,"[3]; solvent DMSO, Yes",Yes (>56 mg/mL)
same,Solids dissolve at 70° C.?,[3]; solvent EtOAc,No
same,Solids dissolve at 70° C.?,[3]; solvent EtOH,No
same,Solids dissolve at 70° C.?,[3]; solvent IPA,No
same,Solids dissolve at 70° C.?,[3]; solvent MEK,No
same,Solids dissolve at 70° C.?,[3]; solvent MTBE,No
same,Solids dissolve at 70° C.?,[3]; solvent Toluene,No
same,Solids dissolve at 70° C.?,[3]; solvent iPAc,No
same,Solids dissolve at 70° C.?,[3]; solvent water,No
same,Solids dissolve at 60° C.?,"[3]; solvent THF, cell says At 65° C.",~10 mg/mL
same,Mass gain by DVS,[1],approximately 2.8%
same,Hygroscopicity by DVS (in words),[1],hygroscopic
same,Deliquescence upon removal from the DVS chamber,[1],no observable deliquescence
same,Absolute % change,[2],0.6%
same,"Stability, HPLC analysis, T = 1 week",[2],97.6%
same,"Stability, HPLC analysis, T = 2 weeks",[2],97.4%
same,"Stability, HPLC analysis, T = 3 weeks",[2],97.2%
same,"Stability, HPLC analysis, T = 4 weeks",[2],97.1%
same,"Stability, HPLC analysis, T = 0",[2],97.7%
"CC(C)(O)COc1cc(-c2ccc(N3CCC(O)(Cc4ccccn4)CC3)nc2)c2c(C#N)cnn2c1 [compound of Formula IV, 6-(2-hydroxy-2-methylpropoxy)-4-(6-(4-hydroxy-4-(pyridin-2-ylmethyl)piperidin-1-yl)pyridin-3-yl)pyrazolo[1,5-a]pyridine-3-carbonitrile]",solubility,[4]; Water,0.007 mg/mL
same,solubility,"[4]; aqueous with cosolvent or surfactant or cyclodextrin, Acetone:water (1:1)",45.8 mg/mL
same,solubility,"[4]; aqueous with cosolvent or surfactant or cyclodextrin, EtOH:water (1:1)",51 mg/mL
same,solubility,"[4]; organic solvent or mixture, ACN",21.2 mg/mL
same,solubility,"[4]; organic solvent or mixture, Acetone",42.9 mg/mL
same,solubility,"[4]; organic solvent or mixture, Acetone:heptane (1:1)",6.1 mg/mL
same,solubility,"[4]; organic solvent or mixture, Butanol",16.6 mg/mL
same,solubility,"[4]; organic solvent or mixture, Chloroform",> 59 mg/mL
same,solubility,"[4]; organic solvent or mixture, Chloroform:heptane (1:1)",11.7 mg/mL
same,solubility,"[4]; organic solvent or mixture, DCM",> 70 mg/mL
same,solubility,"[4]; organic solvent or mixture, EtOH:water (90:10)",55 mg/mL
same,solubility,"[4]; organic solvent or mixture, Ethanol",5.2 mg/mL
same,solubility,"[4]; organic solvent or mixture, Ethyl acetate",21 mg/mL
same,solubility,"[4]; organic solvent or mixture, IPA",7 mg/mL
same,solubility,"[4]; organic solvent or mixture, MEK",30.7 mg/mL
same,solubility,"[4]; organic solvent or mixture, MTBE",5.5 mg/mL
same,solubility,"[4]; organic solvent or mixture, Methanol",> 74 mg/mL
same,solubility,"[4]; organic solvent or mixture, THF",> 37 mg/mL
same,solubility,"[4]; organic solvent or mixture, THF:heptane (30:70)",0.6 mg/mL
same,solubility,"[4]; organic solvent or mixture, p-dioxane",> 62 mg/mL
